Measured values as given in patent publication US20260034119A1, “5-METHOXY-N,N-[…][…], THEIR […], AND METHODS FOR TREATMENT OF NEUROLOGICAL, […], AND SUBSTANCE USE DISORDERS” (priority 2023, published 2026).
“And” between values parts separate entries of the source, which are not always exact repeats. Equal entries are not always repeated. Where two headings read alike, the source gives them in different places.

Key:
human 5-HT1A [1] = target: T1, human 5-HT1A (Homo sapiens, UniProt P08908); assay: 5-HT1A-mediated cAMP reduction assay (GloSensor, HEK293-T)
T1 sequence (P08908 1-422): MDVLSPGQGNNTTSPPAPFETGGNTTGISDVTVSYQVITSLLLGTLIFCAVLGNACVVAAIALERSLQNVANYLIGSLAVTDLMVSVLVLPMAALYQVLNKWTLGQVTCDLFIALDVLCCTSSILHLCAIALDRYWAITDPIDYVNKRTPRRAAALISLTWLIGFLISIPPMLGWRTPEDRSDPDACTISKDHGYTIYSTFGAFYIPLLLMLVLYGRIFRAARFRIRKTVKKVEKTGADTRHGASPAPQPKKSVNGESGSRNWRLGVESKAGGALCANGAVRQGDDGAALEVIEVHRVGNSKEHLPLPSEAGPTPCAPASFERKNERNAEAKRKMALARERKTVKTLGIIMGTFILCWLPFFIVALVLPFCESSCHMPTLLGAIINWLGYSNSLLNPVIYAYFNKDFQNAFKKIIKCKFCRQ

5-HT1A [2] = target: T2, 5-HT1A (Homo sapiens, UniProt P08908); assay: BRET signaling assay: 5-HT1A-mediated activation of heterotrimeric Gi1 (TRUPATH, HEK293-T); conditions: for Emax: HEK-293T, read-out: Emax, 5-HT1A-mediated activation of Gi1 (BRET); for Efficacy as %5HT 5-HT1A BRET Gi1: Table 6, commercial ligands
5-HT2A = 5-HT2A (Homo sapiens, UniProt P28223); assay: cell-based
Chain of 5-HT2A (P28223 whole entry): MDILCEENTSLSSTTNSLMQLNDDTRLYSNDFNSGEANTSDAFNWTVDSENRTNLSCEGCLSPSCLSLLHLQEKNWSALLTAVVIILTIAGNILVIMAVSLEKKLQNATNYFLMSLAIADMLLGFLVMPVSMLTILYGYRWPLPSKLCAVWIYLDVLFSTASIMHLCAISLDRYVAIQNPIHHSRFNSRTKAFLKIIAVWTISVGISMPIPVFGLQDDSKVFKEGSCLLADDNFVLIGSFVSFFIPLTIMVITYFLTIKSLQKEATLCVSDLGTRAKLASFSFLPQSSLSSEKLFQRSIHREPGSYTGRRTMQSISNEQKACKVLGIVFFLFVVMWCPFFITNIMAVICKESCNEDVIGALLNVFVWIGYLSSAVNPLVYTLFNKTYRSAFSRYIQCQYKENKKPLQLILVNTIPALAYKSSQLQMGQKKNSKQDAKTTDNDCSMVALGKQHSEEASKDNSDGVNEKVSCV

human 5-HT1A [3] = target: T1, human 5-HT1A; assay: cell-based
5-HT1A [4] = target: T2, 5-HT1A; assay: cell-based
[5] = EC50 (nM) Mean BRET Gq-2A, Table 2
[6] = EC50 (nM) Mean BRET Gi1-1A, Table 2
[7] = EC50 (nM) Mean Gio(cAMP)-1A, Table 2
[8] = Activity (5-HT1A cAMP) EC50 (nM), Table 5
[9] = EC50 (nM) 5-HT1A cAMP, Table 6, commercial ligands

SMILES | EC50 (5-HT2A; [5]) | EC50 (human 5-HT1A [3]) | EC50 (5-HT2A) | EC50 (5-HT1A [4]) | also measured
O=C1CC2(CCCC2)CC(=O)N1CCCCN1CCN(c2ncccn2)CC1 [Buspirone, buspirone, reference compound] | – | – | – | – | Efficacy as %5HT 5-HT1A cAMP (human 5-HT1A [1]; Table 6, commercial ligands): 96.0 %5HT; Emax (5-HT1A [2]): 93.4%; Efficacy as %5HT 5-HT1A BRET Gi1 (5-HT1A [2]): 93.4 %5HT
COc1ccc2[nH]cc(CCN(C)C)c2c1F [Compound 1] | 86.5 nM | – | – | – | EC50 (human 5-HT1A [1]; pEC50 Gio(cAMP)-1A, Table 2): 0.186 nM; EC50 (5-HT1A [2]; EC50 (nM) Mean BRET Gi1-1A): 1.77 nM
CCN(C)CCc1c[nH]c2ccc(OC)c(F)c12 [Compound 2] | 99.3 nM | – | – | – | EC50 (human 5-HT1A [1]; pEC50 Gio(cAMP)-1A, Table 2): 0.316 nM; EC50 (5-HT1A [2]; [6]): 1.77 nM
CCN(CC)CCc1c[nH]c2ccc(OC)c(F)c12 [Compound 3] | 673 nM | – | – | – | EC50 (human 5-HT1A [1]; [7]): 0.21 nM; EC50 (human 5-HT1A [1]; pEC50 Gio(cAMP)-1A, Table 2): 0.204 nM; EC50 (5-HT1A [2]; [6]): 3.18 nM
CCCN(C)CCc1c[nH]c2ccc(OC)c(F)c12 [Compound 4] | 115 nM | – | – | – | EC50 (human 5-HT1A [1]; pEC50 Gio(cAMP)-1A, Table 2): 0.417 nM; EC50 (5-HT1A [2]; [6]): 3.06 nM
CCCN(CC)CCc1c[nH]c2ccc(OC)c(F)c12 [Compound 5] | 155 nM | – | – | – | EC50 (human 5-HT1A [1]; pEC50 Gio(cAMP)-1A, Table 2): 0.151 nM; EC50 (5-HT1A [2]; [6]): 0.95 nM
CCCN(CCC)CCc1c[nH]c2ccc(OC)c(F)c12 [Compound 6] | 142 nM | – | – | – | EC50 (human 5-HT1A [1]; [7]): 1.31 nM; EC50 (5-HT1A [2]; [6]): 3.7 nM
COc1ccc2[nH]cc(CCN(C)C(C)C)c2c1F [Compound 7] | 152 nM | – | – | – | EC50 (human 5-HT1A [1]; [7]): 2.98 nM; EC50 (5-HT1A [2]; [6]): 14.2 nM
CCCN(CCc1c[nH]c2ccc(OC)c(F)c12)C(C)C [Compound 8] | 249 nM | – | – | – | EC50 (human 5-HT1A [1]; [7]): 5.96 nM; EC50 (human 5-HT1A [1]; pEC50 Gio(cAMP)-1A, Table 2): 5.89 nM; EC50 (5-HT1A [2]; [6]): 16.8 nM; EC50 (5-HT1A [2]; pEC50 BRET Gi1-1A, Table 2): 16.6 nM
CCN(C)CCc1c[nH]c2ccc(OC)cc12 [Compound 9] | – | 4.44 nM | 37.7 nM | 25.9 nM | –
COc1ccc2[nH]cc(CCN(C(C)C)C(C)C)c2c1F [Compound 9] | 338 nM | – | – | – | EC50 (human 5-HT1A [1]; [7]): 6 nM; EC50 (5-HT1A [2]; [6]): 35.8 nM
C=CCN(C)CCc1c[nH]c2ccc(OC)c(F)c12 [Compound 10] | 156 nM | – | – | – | EC50 (human 5-HT1A [1]; [7]): 2.57 nM; EC50 (5-HT1A [2]; [6]): 8.41 nM
CCCN(C)CCc1c[nH]c2ccc(OC)cc12 [Compound 10] | – | 18.6 nM | 28.3 nM | 60.3 nM | –
CCN(CC)CCc1c[nH]c2ccc(OC)cc12 [Compound 11] | – | 11 nM | 172 nM | 37.1 nM | –
COc1ccc2[nH]cc(CCN3CCCC3)c2c1F [Compound 11] | 300 nM | – | – | – | EC50 (human 5-HT1A [1]; [7]): 0.03 nM; EC50 (human 5-HT1A [1]; pEC50 Gio(cAMP)-1A, Table 2): 0.0282 nM; EC50 (5-HT1A [2]; pEC50 BRET Gi1-1A, Table 2): 0.372 nM
CCCN(CC)CCc1c[nH]c2ccc(OC)cc12 [Compound 12] | – | 2.47 nM | 22.1 nM | 8.36 nM | –
COc1ccc2[nH]cc(CCN3CCCCC3)c2c1F [Compound 12] | – | – | – | – | EC50 (human 5-HT1A [1]; [7]): 2.42 nM; EC50 (5-HT1A [2]; [6]): 8.97 nM
CCCN(CCC)CCc1c[nH]c2ccc(OC)cc12 [Compound 13] | – | 3.57 nM and 4.37 nM | 20.2 nM | 15.4 nM | –
COc1ccc2[nH]cc(CCN3CC=CC3)c2c1F [Compound 13] | 120 nM | – | – | – | EC50 (human 5-HT1A [1]; pEC50 Gio(cAMP)-1A, Table 2): 0.00229 nM; EC50 (5-HT1A [2]; pEC50 BRET Gi1-1A, Table 2): 0.219 nM
COc1ccc2[nH]cc(CCN(C)C(C)C)c2c1 [Compound 14] | – | 51.8 nM | 17.3 nM | 112 nM | –

SMILES | EC50 (5-HT2A; [5]) | EC50 (human 5-HT1A [3]) | EC50 (5-HT2A) | EC50 (5-HT1A [4]) | also measured
CCCN(CCc1c[nH]c2ccc(OC)cc12)C(C)C [Compound 15] | – | 26.7 nM | 51.2 nM | 101 nM and 100 nM | –
C=CCN(C)CCc1c[nH]c2ccc(OC)cc12 [Compound 16] | – | 9.64 nM | 24.5 nM and 25.7 nM | 42.7 nM | –
CN(C)CCc1c[nH]c2ccc(O)c(F)c12 [Compound 16] | 7.46 nM | – | – | – | EC50 (human 5-HT1A [1]; pEC50 Gio(cAMP)-1A, Table 2): 0.251 nM; EC50 (5-HT1A [2]; [6]): 1.13 nM
COc1ccc2[nH]cc(CCN3CCCC3)c2c1 [Compound 18] | – | 0.16 nM and 0.166 nM | 81.5 nM | 2.13 nM | –
COc1ccc2[nH]cc(CCN3CC=CC3)c2c1 [Compound 21, 3-(2-(2,5-dihydro-1H-pyrrol-1-yl)ethyl)-5-methoxy-1H-indole] | – | – | 9.91 nM | 0.257 nM | EC50 (5-HT1A [2]; Gi BRET EC50): 0.3 nM; further increase in potency at 5-HT1A (5-HT1A [2]; relative to 5-MeO-PyrT): ~8 fold
CCN(CC)CCc1c[nH]c2ccc(OC)c(F)c12 [Compound 27, N,N-diethyl-2-(4-fluoro-5-methoxy-1H-indol-3-yl)ethan-1-amine] | – | 0.21 nM and 0.204 nM | 673 nM | 3.18 nM | –
COc1ccc2[nH]cc(CCN(C)C(C)C)c2c1F [Compound 31, N-(2-(4-fluoro-5-methoxy-1H-indol-3-yl)ethyl)-N-methylpropan-2-amine] | – | 2.98 nM | 152 nM | 14.2 nM | –
CCCN(CCc1c[nH]c2ccc(OC)c(F)c12)C(C)C [Compound 32, N-(2-(4-fluoro-5-methoxy-1H-indol-3-yl)ethyl)-N-isopropylpropan-1-amine] | – | 5.96 nM and 5.89 nM | 249 nM | 16.8 nM and 16.6 nM | –
COc1ccc2[nH]cc(CCN(C(C)C)C(C)C)c2c1F [Compound 33, N-(2-(4-fluoro-5-methoxy-1H-indol-3-yl)ethyl)-N-isopropylpropan-2-amine] | – | 6 nM | 338 nM | 35.8 nM | –
COc1ccc2[nH]cc(CCN3CCCC3)c2c1F [Compound 35, 4-fluoro-5-methoxy-3-(2-(pyrrolidin-1-yl)ethyl)-1H-indole] | – | 0.03 nM and 0.0282 nM | 300 nM | 0.372 nM | –
COc1ccc2[nH]cc(CCN3CCCCC3)c2c1F [Compound 36, 4-fluoro-5-methoxy-3-(2-(piperidin-1-yl)ethyl)-1H-indole] | – | 2.42 nM | – | 8.97 nM | –
CN(C)CCc1c[nH]c2ccc(O)cc12 [Compound 49, Bufotenine, reference compound] | – | – | – | 9.29 nM | –
CN(C)CCc1c[nH]c2cccc(O)c12 [Compound 52, Psilocin, reference compound] | – | 512 nM | – | 1080 nM and 1070 nM | –
COc1ccc2occ(CCN3CCCC3)c2c1 [Compound 77, 1-(2-(5-methoxybenzofuran-3-yl)ethyl)pyrrolidine] | – | – | – | – | EC50 (human 5-HT1A [1]; [8]): 7.19 nM
COc1ccc2occ(CCN3CCCCC3)c2c1 [Compound 78, 1-(2-(5-methoxybenzofuran-3-yl)ethyl)piperidine] | – | – | – | – | EC50 (human 5-HT1A [1]; [8]): 416 nM
COc1ccc2occ(CCN3CC=CCC3)c2c1 [Compound 79, 1-(2-(5-methoxybenzofuran-3-yl)ethyl)-1,2,3,6-tetrahydropyridine] | – | – | – | – | EC50 (human 5-HT1A [1]; [8]): 7130 nM
CC1(C)CC(=O)N(CCCCN2CCN(c3ncccn3)CC2)C(=O)C1 [Gepiron, Gepirone, reference compound] | – | – | – | – | Efficacy as %5HT 5-HT1A cAMP (human 5-HT1A [1]; Table 6, commercial ligands): 95.4 %5HT
c1ccc2c(N3CCNCC3)cccc2c1 [N-(1-naphthyl)piperazine, N-(1-Napthyl)piperazine, reference compound] | – | – | – | – | EC50 (human 5-HT1A [1]; [9]): 50.3 nM; Efficacy as %5HT 5-HT1A cAMP (human 5-HT1A [1]; Table 6, commercial ligands): 137.0 %5HT
O=C1[C@@H]2[C@H]3CC[C@H](C3)[C@@H]2C(=O)N1CCCCN1CCN(c2ncccn2)CC1 [Tandospirone, reference compound] | – | – | – | – | EC50 (human 5-HT1A [1]; [9]): 1.51 nM; Efficacy as %5HT 5-HT1A cAMP (human 5-HT1A [1]; Table 6, commercial ligands): 96.3 %5HT
N#Cc1ccc2[nH]cc(CCCCN3CCN(c4ccc5oc(C(N)=O)cc5c4)CC3)c2c1 [Vilazodone, vilazodone, reference compound] | – | – | – | – | Efficacy as %5HT 5-HT1A cAMP (human 5-HT1A [1]; Table 6, commercial ligands): 110.5 %5HT; activity at concentrations as low as (5-HT1A [2]; 5-HT1A Gi1 BRET): 30 pM; Emax (5-HT1A [2]): 97.4%; Efficacy as %5HT 5-HT1A BRET Gi1 (5-HT1A [2]): 97.4 %5HT
